Test results: patent publication US4980359A, “Isoquinoline derivatives and their use” (Sandoz Ltd., priority 1988, dated 1990)
pIC50: −log10 of the molar value.

Tests used:
[1] = system: guinea-pig tracheal ring preparations; assay: Bronchospasmolytic activity in vitro (relaxation of tracheal rings); conditions: Cavia porcellus; method A.1, guinea-pig tracheal rings in vitro
From the text: 1. Bronchospasmolytic activity in vitro
The trachea is excised from freshly sacrificed guinea-pigs (Dunkin-Hatley (350-500 g) and transected in the transverse plane to give rings of tissue of ca. 3-5 mm deep. Individual rings are mounted vertically on stainless steel supports, one of which is fixed at the base of an organ bath, the other being attached to an isometric transducer. The rings are bathed in Krebs solution (composition […]: NaHCO3 25, NaCl 113, KCl 4.7, MgSO4.7H2) 1.2, KHhd 2PO4 1.2, CaCl2 2.5, Glucose 11.7) at 37° C. and gassed with O2 /CO2 (95:5, v/v). Rings prepared in this manner, preloaded with 1 g, generate spontaneous tone and, after a period of equilibration (45-60 min.), relax consistently on addition of spasmolytic drugs. Tension can be enhanced by addition of carbachol (10^-6 M) or histamine (10^-4 M). To ascertain spasmolytic activity, test substances are dissolved in physiological saline and added in increasing quantities to the organ bath at 10 min. intervals to provide a cumulative concentration-effect curve.
In the above test model compounds of formula I and their pharmaceutically acceptable acid addition salts produce concentrationrelated relaxation of guinea-pig tracheal ring preparations irrespective of the contractile agency at concentrations of from about 10^-7 to about 10^-5 M.

[2] = system: bombesin-induced bronchospasm; assay: Bronchodilator activity in vivo (reversal of bombesin-induced bronchospasm); set-up: species or system Guinea pigs (Dunkin-Hartley); conditions: Cavia porcellus, method A.2, intra. duodenally
Procedure: 2. Bronchodilator activity in vivo
Guinea pigs (Dunkin-Hartley, .male., 400-600 g) are anesthetized with phenobarbital (100-mg/kg i.p.) and pentobarbital (30 mg/kg i.p.) and paralyzed with gallamine (10 mg/kg i.m.). Animals are ventilated via a tracheal cannula (10 ml/kg, 1Hz.). Blood pressure and heart rate are recorded at the carotid artery. Ventilation is monitored by a Fleisch flow transducer in lien with the inspiratory circuit. When making measurements of flow, coincident pressure changes in the thorax are monitored directly via an intrathoracic trochar, permitting display of differential pressure relative to the trachea. From this information resistance and compliance are calculated at each inspiration.
Continuous intravenous infusion of bombesin (50-100 ng/kg/min) induces sustained bronchospasm. Capacity of test-substance to reverse response when administered intra-duodenally via a 12 gauge metal needle fixed by a purse string ligature into the peripheral end of the transected duodenum serves as a measure of efficacy in reversing established bronchospasm.
The bronchodilator response is taken as the percentage reduction of the maximal response to bombesin, measured at regular intervals, up to 64 mins..

[3] = system: PAF-induced airways hyperreactivity; assay: Suppression of airways hyperreactivity, PAF-treated animals; assay type: in vivo, Guinea-pigs; conditions: Cavia porcellus, iv, method B
Procedure: Guinea-pigs are anesthetized and prepared for recording of lung function as described under example A.2. above. Intravenous injection of low dose bombesin (240 ng/kg) establishes airways sensitivity to spasmogens. Following infusion of PAF (platelet activating factor) over 1 hr.

[4] = system: PAF-induced lung eosinophil accumulation; assay: Inhibition of eosinophil accumulation (PAF-induced lung eosinophilia); assay type: in vivo, Guinea-pigs (Dunkin-Hartley); conditions: Cavia porcellus, sc, 168 h, method C, over 7 days
Procedure: EXAMPLE C: INHIBITION OF EOSINOPHIL ACCUMULATION
Guinea-pigs (Dunkin-Hartley 400-600 g) are injected intraperitoneally with 10 μg/kg of PAF, a procedure which produces lung eosinophilia.
Animals are sacrificed with pentobarbital (100 mg/kg i.p.) 24 hours later. The trachea is exposed and cannulated and the airway lumen washed by introduction and aspiration of 10 ml aliquots (x6) of buffered modified Tyrode solution (composition mM: NaHCO3 11.9, NaCl 136.9, KCl 2.7, Na2 HPO4, glucose 5.6, EDTA 19.8; protein % w/v=gelatin 0.1, BSA 0.5; pH to 7.4 by addition of 2N NaOH). Total fluid recovery generally exceeds 80%.
Cell suspensions are concentrated by low speed centrifugation (200 g for 10 mins.) and the resulting cell pellet is resuspended in 1 ml modified Tyrode solution. Total cell counts are effected in a haemocytometer by diluting 10 μl cell suspension in 90 μl Turks fluid. Differential cell counts are made from smears fixed in 100% methanol and stained with Leishman stain. At least 500 cells smear are counted at 1000 fold magnification to differentiate cell types.
Test compound is administered over 7 days at varying concentration in 1 mg/kg s.c. amounts with exposure to PAF occurring 5 days after commencement of test compound administration. […]

SMILES | pIC50 [1] | ED50 [2] [mg/kg] | ED50 [3] [mg/kg] | ED50 [4] [mg/kg]
COCCOc1cc(OCCOC)cc(-c2nc(C)cc3cc(OC)c(OC)cc23)c1 [Example 12, 3-methyl-6,7-dimethoxy-1-(3,5-dimethoxyethoxy-phenyl)-isoquinoline] | 6.52 | ~2 | < 1 | < 2
Cn1c(=O)c2[nH]cnc2n(C)c1=O [Theophylline, theophylline] | 4.11 | 11 | 5 | 5
